Experimental data taken from US20140171320A1, “Composition Comprising A Pesticide And An Alkoxylate Of 2-Isopropyl-5-Methylhexane-1-Amine” (BASF SE, priority 2012, published 2014).

Experiments:
[1] = test system: soybean (cultivar Sultana); experiment: Greenhouse herbicidal activity of glyphosate SL formulation with amine alkoxylate adjuvant on soybean; type: in vivo; conditions: after 21 days; 140 g glyphosate-IPA salt/ha and 300 g amine alkoxylate/ha, 375 l/ha water; score vs untreated plants
Description: (§1) For the greenhouse tests, winter wheat (cultivar Cubus), soybean (cultivar Sultana), and maize (cultivar Amadeo) was sown or potted in loamy sandy soil to a depth of 1-2 cm. When the plants had reached a growth height of 10 to 25 cm (i.e., around 10 to 21 days after sowing), the spray mixtures were applied to the plants in a spraying cabin.
(§2) A concentrated formulation comprising glyphosate isopropylammonium in solution in water and amine alkoxylate from Example 2 was diluted with deionized water and applied at a water application rate of 375 l/ha (140 g of glyphosate-IPA salt/ha and 300 g of amine alkoxylate/ha). The temperatures in the experimental period, which lasted for 3 weeks, were between 18-35° C. During this time, the experimental plants received optimum watering, with nutrients being supplied via the water used for watering.
(§3) The herbicidal activity was evaluated by awarding scores to the treated plants in comparison to the untreated control plants (Table 2). The evaluation scale ranges from 0% to 100% activity. 100% activity means the complete death at least of those parts of the plant that are above ground. Conversely, 0% activity means that there were no differences between treated and untreated plants.

[2] = test system: winter wheat (cultivar Cubus); experiment: Greenhouse herbicidal activity of glyphosate SL formulation with amine alkoxylate adjuvant on winter wheat; type: in vivo; conditions: after 21 days; 140 g glyphosate-IPA salt/ha and 300 g amine alkoxylate/ha, 375 l/ha water; score vs untreated plants
Description: as §1, §2, §3

maize (cultivar Amadeo) = experiment: Greenhouse herbicidal activity of glyphosate SL formulation with amine alkoxylate adjuvant on maize; type: in vivo; conditions: after 21 days; 140 g glyphosate-IPA salt/ha and 300 g amine alkoxylate/ha, 375 l/ha water; score vs untreated plants
Description: as §1, §2, §3

[3] = test system: Setaria verticillata (SETVE); experiment: Greenhouse herbicidal activity of glyphosate SL formulation with amine alkoxylate adjuvant on Setaria; type: in vivo; conditions: after 21 days; 140 g glyphosate-IPA salt/ha and 300 g amine alkoxylate/ha; score vs untreated plants
Description: as §1, §2, §3
(§4) The experiments were carried out as in Example 3, on Sorghum halepense (SORHA) and Setaria verticillata (SETVE). The application rate was 140 g of glyphosate-IPA salt/ha and 300 g of amine alkoxylate/ha.

[4] = test system: Sorghum halepense (SORHA); experiment: Greenhouse herbicidal activity of glyphosate SL formulation with amine alkoxylate adjuvant on Sorghum; type: in vivo; conditions: after 21 days; 140 g glyphosate-IPA salt/ha and 300 g amine alkoxylate/ha; score vs untreated plants
Description: as §1, §2, §3, §4

[5] = Storage stability of aqueous glyphosate formulation; type: physicochemical; conditions: 41.5% by weight glyphosate-isopropylammonium salt and 15.5% by weight amine alkoxylate, −5 to +55° C.

| Compound | Activity [%] Soybean [1] [%] | Activity [%] Winter wheat [2] [%] | Activity [%] Maize (maize (cultivar Amadeo)) [%] | Activity [%] SETARIA [3] [%] | Activity [%] SORHA [4] [%] | Storage stability [5] |
| --- | --- | --- | --- | --- | --- | --- |
| 2-propylheptylamine-10 EO | 42 | 55 | 80 | 88 | 97 | – |
| 2-Isopropyl-5-methylhexane-1-amine-10 EO | 48 | 62 | 80 | 78 | 93 | storage stable for at least two weeks |
| CC(C)N.O=C(O)CNCP(=O)(O)O [—, glyphosate isopropylammonium] | 20 | 18 | 32 | 58 | 33 | – |
